Laboratory results taken from US20230405011A1, “COMBINATION THERAPY FOR THE TREATMENT OF CANCER” (Novartis AG, priority 2013, published 2023).

Assay: Phase Ib/II trial of Example 5: pharmacokinetics
Assay type: in vivo

SMILES: CO[C@H]1C[C@@H]2CC[C@@H](C)[C@@](O)(O2)C(=O)C(=O)N2CCCC[C@H]2C(=O)O[C@H]([C@H](C)C[C@@H]2CC[C@@H](OCCO)[C@H](OC)C2)CC(=O)[C@H](C)/C=C(\C)[C@@H](O)[C@@H](OC)C(=O)[C@H](C)C[C@H](C)/C=C/C=C/C=C/1C [EVE, Everolimus, reference compound]
- EVE exposure at steady state (in vivo): increased

SMILES: CN(C)C(=O)c1cc2cnc(Nc3ccc(N4CCNCC4)cn3)nc2n1C1CCCC1 [Compound A1, 7-Cyclopentyl-2-(5-piperazin-1-yl-pyridin-2-ylamino)-7H-pyrrolo[2,3-d]pyrimidine-6-carboxylic acid dimethylamide]
- effect of EVE on Compound A1 exposure (preliminary PK analysis): does not affect
- absorption (steady state (C1D15), Compound A1+EVE+EXE): rapidly absorbed
